Tests used:
Parameters in all cases: species or system Female Nude mice
[1] = tested on: CTG-3718 xenograft (ovarian PDX, relapsed on talazoparib); assay: Antitumor test in vivo, CTG3718 ovarian patient derived xenograft model (Example 8); details: CTG-3718 ovarian PDX; DS-1062 10 mg/kg IV single dose; AZD6738 25 mg/kg PO BID Day 1-14
From the text: (§1) Female Nude mice (Envigo) aged 5-8 weeks were used, following 7 days acclimatisation before entry into the study. The human patient-derived xenograft (PDX) model, CTG-3718, was established from fragments of freshly resected tumor of a ovarian cancer patient whom relapsed on treatment with PARP inhibitor talazoparib. This PDX was obtained in accordance with appropriate consent procedures. This ovarian PDX model was subcutaneously passaged in vivo as fragments from animal to animal in nude mice. When tumors reached approximately 250 mm^3, similar-sized tumors were randomly assigned to treatment groups as shown in Table 11:
(§2) The dose of compound for each animal was calculated based on the individual body weight on the day of dosing. DS-1062 and AZD6738 were dosed on the same day, with DS-1062 being administered approximately 5 hour post the PO dose of AZD6738. DS-1062 was administered as a single dose at 10 mg/kg on day 1, and AZD6738 was administered at 25 mg/kg BID for 14 days.
(§3) The dosing solution for DS-1062 was prepared on the day of dosing by diluting the DS-1062 stock (20.1 mg/ml) in 25 mM histidine buffer, 9% sucrose (pH5.5) to 2 mg/ml for 10 mg/kg dosing solution. The dosing solution was mixed well using a pipette before administration via IV injection at a dosing volume of 5 ml/kg.
DMSO (10% of the total vehicle volume) was added to the compound and mixed well with a pellet pestle. […]

[2] = tested on: N87-DS-1062 resistant tumor cell xenograft (gastric cancer cell line); assay: Antitumor test in vivo, N87 DS-1062 resistant model (Example 9); details: N87-DS-1062 resistant xenograft; DS-1062 10 mg/kg IV single dose; AZD6738 25 mg/kg PO BID Day 1-7
Procedure: (§4) Female Nude mice (Charles River) aged 5-8 weeks were used, following 7 days acclimatisation before entry into the study. 5×10^6 N87-DS-1062 resistant tumor cells (gastric cancer cell line) (1:1 in Matrigel) were implanted subcutaneously onto the flank of the female Nude mice. When tumors reached approximately 250 mm^3, similar-sized tumors were randomly assigned to treatment groups as shown in Table 13:
as §2, with “7” for “14”
as §3
DMSO (10% of the total vehicle volume) was added to the compound and mixed well with a pellet pestle. Sonication for approximately 5 minutes was required to fully dissolve the compound. Following which, propylene glycol (40% of the total vehicle volume) was added and mixed well using a magnetic stirrer. […]

[3] = tested on: NCI-N87 xenograft (gastric cancer cell line); assay: Antitumor test in vivo, NCI-N87 xenograft model (Example 4); details: DS-1062 10 mg/kg IV single dose, AZD6738 25 mg/kg PO QD 14 days
Procedure: as §4, with “NCI-N87” for “N87-DS-1062 resistant”, “4:” for “13:”
as §2, with “QD” for “BID”, “days. Duration of dosing was for 14 days.” for “days.”
The dosing solutions for DS-1062 were prepared on the day of dosing by diluting the DS-1062 stock (20.1 mg/ml) in 25 mM histidine buffer, 9% sucrose (pH5.5) to 0.6 mg/ml, and 2 mg/ml for the 3 mg/kg and 10 mg/kg dosing solutions, respectively. Each dosing solution was mixed well using a pipette before administration via IV injection at a dosing volume of 5 ml/kg. […]
(§5) Tumor growth inhibition (TGI) was calculated as follows:
(§6) Statistical significance was evaluated using one-tailed t-test of (log(relative tumor volume)=log(final vol/start vol)) at the day of final measure, comparing to vehicle control. […]

[4] = tested on: NCI-N87 xenograft (gastric cancer cell line); assay: Antitumor test in vivo, dose optimization, NCI-N87 xenograft model (Example 7); details: DS-1062 10 mg/kg IV single dose, AZD6738 25 mg/kg PO BID Day 1-14
Procedure: as §4, with “(Envigo)” for “(Charles River)”, “NCI-N87” for “N87-DS-1062 resistant”, “9:” for “13:”
The dose of compound for each animal was calculated based on the individual body weight on the day of dosing. DS-1062 was administered as a single dose at 10 mg/kg on day 1, and AZD6738 was administered at 25 mg/kg BID as listed in Table 9.
as §3, with “solution. Each” for “solution. The”
DMSO (10% of the total vehicle volume) was added to the compound and mixed well with a pellet pestle. Sonication for approximately 5 minutes was required to fully dissolve the compound. […]
as §5, §6

[5] = tested on: CTG-3303 xenograft (TNBC PDX, relapsed on talazoparib); assay: Antitumor test in vivo, TNBC patient derived xenograft model CTG-3303 (Example 5); details: CTG-3303 TNBC PDX; for TGI % day 46: DS-1062 10 mg/kg IV single dose, AZD6738 25 mg/kg PO QD 14 days; for percentage of mice achieving a complete response (tumor volume=0 mm^3): day 93 post treatment, 8 mice per group, DS-1062 10 mg/kg, AZD6738 25 mg/kg QD
From the text: as §1, with “mice (Charles River)” for “mice (Envigo)”, “model, CTG-3303,” for “model, CTG-3718,”, “a triple negative breast” for “a ovarian”, “cancer (TNBC)” for “cancer”, “This TNBC” for “This ovarian”, “Table 6:” for “Table 11:”
as §2, with “QD” for “BID”, “days. Duration of dosing was for 14 days.” for “days.”
The dosing solutions for DS-1062 were prepared on the day of dosing by diluting the DS-1062 stock (20.1 mg/ml) in 25 mM histidine buffer, 9% sucrose (pH5.5) to 0.6 mg/ml, and 2 mg/ml for the 3 mg/kg and 10 mg/kg dosing solutions, respectively. Each dosing solution was mixed well using a pipette before administration via IV injection at a dosing volume of 5 ml/kg.
DMSO (10% of the total vehicle volume) was added to the compound and mixed well with a pellet pestle. Sonication for approximately 5 minutes was required to fully dissolve the compound. Following which, propylene glycol (40% of the total vehicle volume) was added and mixed well using a magnetic stirrer. A volume of 10 ml of sterile water was added to the glass wheaton vial to rinse any remaining compound from the vial then transferred to the glass bottle. The remaining volume of sterile water in total (50% of the final vehicle volume) was added to the glass bottle and mixed well using a magnetic stirrer. The dosing solution was protected from light and kept at room temperature for up to 7 days being continually mixed. The final dosing matrix for 25 mg/kg AZD6738 was a clear solution with a faint yellow hue.
Values shown are geometric mean±SEM; n=8 for all treatment groups. The mice which had reached the humane endpoint (e.g. large tumor burden) during the study were removed from the group and the remaining mice were used for the calculation of the TGI.

Molecule	TGI % day 22 [1] [%]	TGI % day 21 [2] [%]	TGI % day 33 [3] [%]	TGI % day 42 [4] [%]	TGI % day 46 [5] [%]	percentage of mice achieving a complete response (tumor volume=0 mm^3) [5] [%]
C[C@@H]1COCCN1c1cc(C2([S@](C)(=N)=O)CC2)nc(-c2ccnc3[nH]ccc23)n1 [AZD6738, 4-{4-[(3R)-3-Methylmorpholin-4-yl]-6-[1-((R)-S-methylsulfonimidoyl)cyclopropyl]pyrimidin-2-yl}-1H-pyrrolo[2,3-b]pyridine]	−25.7	−9.8	30.1	23.7	2.3	0
DS-1062: anti-TROP2 antibody-drug conjugate; exatecan-derivative drug-linker conjugated to the anti-TROP2 antibody via a thioether bond; DAR ~4 (conjugate, chains of the INN, looked up, exatecan-derivative drug-linker, DAR ~4) VH: QVQLVQSGAEVKKPGASVKVSCKASGYTFTTAGMQWVRQAPGQGLEWMGWINTHSGVPKYAEDFKGRVTISADTSTSTAYLQLSSLKSEDTAVYYCARSGFGSSYWYFDVWGQGTLVTVSS VL: DIQMTQSPSSLSASVGDRVTITCKASQDVSTAVAWYQQKPGKAPKLLIYSASYRYTGVPSRFSGSGSGTDFTLTISSLQPEDFAVYYCQQHYITPLTFGQGTKLEIK	69.8	0.77	84.1	74.8	88.2	0

From US20250064967A1, “COMBINATION OF ANTIBODY-DRUG CONJUGATE AND ATR INHIBITOR” (AstraZeneca UK Limited, priority 2021, published 2025)
